According to ChEMBL document CHEMBL5241091, “Biguanides drugs: Past success stories and promising future for drug discovery” (Eur J Med Chem, 2021):
In brackets after ≈: the same amount, converted by molar mass. Blank lines part the entries; values can stand above or below the compound they belong to.

Columns and labels:
Plasmodium falciparum [1] = experiment: Antimalarial activity against Plasmodium falciparum GA3; type: functional, organism-based
Plasmodium falciparum [2] = experiment: Antimalarial activity against Plasmodium falciparum CH12; type: functional, organism-based
[3] = Oral bioavailability in rat; type: ADME, organism-based; settings: in vivo
Cavia porcellus = experiment: Hypoglycemic activity in sc dosed guinea pig assessed as glucose lowering effect; type: functional
[4] = Half life in po dosed human; type: ADME, organism-based; settings: in vivo
Plasmodium berghei [5] = experiment: Potency index, ratio of chloroquine ED50 to test compound ED50 for antimalarial activity against Plasmodium berghei infected in mouse; type: functional
Plasmodium berghei [6] = experiment: Potency index, ratio of cycloguanil ED50 to test compound ED50 for antimalarial activity against Plasmodium berghei infected in mouse; type: functional
[7] = Inhibition of Plasmodium knowlesi DHFR
MCF7 [8] = experiment: Cytotoxicity against human MCF7 cells assessed as reduction in breast cancer stem cells at 5 mM after 48 hrs (reference value: 2.78%); type: functional; parameters: scale not given: the % may be the effect or the level left
SW-620 = experiment: Synergistic antiproliferative activity against human SW620 cells assessed as reduction in cancer stem cells preincubated for 24 hrs followed by 5-FU addition and measured after 48 hrs (reference value: 21.30 +/- 1.40 %); type: functional; parameters: scale not given: the % may be the effect or the level left
[9] = Toxicity in rat; settings: in vivo
MCF7 [10] = experiment: Cytotoxicity against human MCF7 cells assessed as reduction in breast cancer stem cells at 1 mM after 48 hrs (reference value: 2.78%); type: functional; parameters: scale not given: the % may be the effect or the level left
Homo sapiens = species on record: Homo sapiens; experiment: Antidiabetic activity in human assessed as reduction in hepatic glucose output; type: functional; parameters: scale not given: the % may be the effect or the level left
[11] = Toxicity in po dosed mouse; type: organism-based; settings: in vivo
[12] = Toxicity in sc dosed mouse; type: organism-based; settings: in vivo
Clostridium septicum = experiment: Antibacterial activity against Clostridium septicum; type: functional
Streptococcus pyogenes = experiment: Antibacterial activity against Streptococcus pyogenes; type: functional
Streptococcus = experiment: Antibacterial activity against Streptococcus beta-haemolyticus; type: functional

IC50 (Plasmodium falciparum [1]): 0.532 µg/mL (≈ 1.34 µM)
IC50 (Plasmodium falciparum [2]): 326 ng/mL (≈ 0.822 µM)
SMILES: CC(C)/N=C(N)/N=C(\N)NOCCCOc1cc(Cl)c(Cl)cc1Cl

SMILES: CC1(C)N=C(N)N=C(N)N1OCCCOc1cc(Cl)c(Cl)cc1Cl
bioavailability [3]: ≤ 1%
IC50 (Plasmodium falciparum [2]): 0.05 ng/mL (≈ 0.000127 µM)

SMILES: CCCCNC(=N)NC(=N)N [BUFORMIN]
MED (Cavia porcellus): 20 mg

half-life [4]: 35 h
SMILES: CC(C)NC(=N)NC(=N)Nc1ccc(Cl)c(Cl)c1 [CHLORPROGUANIL]

EC50 [7]: 1 pM
SMILES: CC1(C)N=C(N)N=C(N)N1OCc1ccc(Cl)c(Cl)c1 [CLOCIGUANIL]
Ratio ED50 (Plasmodium berghei [5]): 10
Ratio ED50 (Plasmodium berghei [6]): 30

SMILES: CN(C)C(=N)NC(=N)N [METFORMIN]
Activity (MCF7 [8]): 1.29%
Activity (SW-620): 15.13%
LD50 [9]: 1000 mg/kg
Activity (MCF7 [10]): 2.2%
Activity (Homo sapiens): >=75%
MED (Cavia porcellus): 75 mg
LD50 [11]: 1450 mg/kg
LD50 [12]: 2200 mg/kg

SMILES: N=C(N)/N=C(\N)N1CCOCC1 [MOROXYDINE]
LD50 [11]: > 6250 mg/kg
LD50 [12]: 225 mg/kg

SMILES: N=C(N)NC(=N)NCCc1ccccc1 [PHENFORMIN]
MED (Cavia porcellus): 7.5 mg

MIC (Clostridium septicum): 300 µg/mL (≈ 631 µM)
MIC (Streptococcus pyogenes): 760 µg/mL (≈ 1600 µM)
SMILES: N=C(NC(=N)N1CCN(C(=N)NC(=N)Nc2ccc(Cl)cc2)CC1)Nc1ccc(Cl)cc1 [PICLOXYDINE]
MIC (Streptococcus): 760 µg/mL (≈ 1600 µM)
